Data published in patent publication US7731985B2, “4-aminopyrimidines and their use for the antimicrobial treatment of surfaces” (Ciba Specialty Chemicals Corporation, priority 2002, dated 2010).

How the values were obtained:
Assay in all cases: MIC in microtitre plates (Example 10)
Assay type in all cases: cell-based
Set-up in all cases: unit not given here
Details in all cases: microtitre plate, 48 hours at 37° C., ≦20% growth
[1] = test system: Staphylococcus aureus ATCC 9144 (=SA)
Procedure: (§1) Determination of the Minimum Inhibitory Concentration (MIC Value) in Microtitre Plates Casein/soymeal peptone broth for preparation of pre-cultures of test bacteria and yeast Bacteria: • Pseudomonas aeruginosa CIP A-22 (=PA) • Escherichia coli NCTC 8196 (=EC) • Staphylococcus aureus ATCC 9144 (=SA) • Candida albicans ATCC 10231 (=CA) The test substances are pre-dissolved in dimethyl sulfoxide (DMSO) and tested in a dilution series of 1:2. Bacteria and yeast are cultured overnight in CASO broth. All the test organism suspensions are adjusted to an organism count of 1-5×10^6 CFU/ml using […] sodium chloride solution. The test substances are pre-pipetted into microtitre plates in amounts of 8 μl per well. The pre-adjusted organism suspensions are diluted 1:100 in CASO broth and are added in amounts of 192 μl per well to the test substances. The test batches are incubated for 48 hours at 37° C. The incubation, the growth is determined on the basis of the turbidity of the test batches (optical density) at 620 nm in a microplate reader. The minimum inhibitory concentration (MIC value) is the concentration of substance at which (compared to the growth of the control) an appreciable inhibition of growth (≦20% growth) of the test organisms is observed. Three microtitre plates are used for each test organism and substance concentration. All the substances are tested in duplicate.

[2] = test system: Escherichia coli NCTC 8196 (=EC)
Procedure: as §1

[3] = test system: Pseudomonas aeruginosa CIP A-22 (=PA)
Procedure: as §1

[4] = test system: Candida albicans ATCC 10231 (=CA)
Procedure: as §1

| Structure (SMILES) | MIC SA [1] | MIC EC [2] | MIC PA [3] | MIC CA [4] |
| --- | --- | --- | --- | --- |
| CCCCN(C)c1cc(C)nc(-c2cccs2)n1 [compound 124] | 60 | 120 | >120 | 60 |
| CCCCC(CC)CNc1cc(C)nc(-c2cccs2)n1 (centres unmarked) [compound 132] | 60 | >120 | >120 | >120 |
| CCCCCCCCNc1cc(C)nc(-c2csc(C)n2)n1 [compound 69] | <3.75 | 30 | >120 | 7.5 |
| CCN(CC)CCCNc1cc(C)nc(-c2cccnc2)n1 [compound 44] | 120 | >120 | >120 | 120 |
| CCCCCCCCCCCCNc1cc(C)nc(C)n1 [compound 89] | <3.75 | <3.75 | >120 | <3.75 |
| CCCCCCNc1cc(C)nc(-c2ccncc2)n1 [compound 112] | 15 | 120 | >120 | 30 |
| Cc1cc(NC(C)CC(C)C)nc(-c2ccc(C)c(F)c2)n1 (centres unmarked) [compound 148] | 120 | >120 | >120 | >120 |
| Cc1ccc(-c2nc(-c3ccccc3)nc(NCCCN3CCN(CCCN)CC3)c2-c2ccccc2)cc1 [compound 14] | 15 | 3.75 | 30 | 15 |
| CCCCCCCCCCCCNc1cc(C)nc(-c2cccs2)n1 [compound 86] | 15 | 15 | <120 | 7.5 |
| COc1ccccc1-c1nc(-c2ccccc2)nc(N2CCN(CCN)CC2)c1-c1ccccc1 [compound 27] | 30 | 30 | >120 | 60 |
| Cc1cc(NC(C)CC(C)C)nc(-c2ccncc2)n1 (centres unmarked) [compound 142] | 30 | >120 | >120 | 120 |
| CCCCCCCCCCCCCCNc1cc(C)nc(-c2ccccc2)n1 [compound 76] | 15 | 60 | >120 | 30 |
| CCCCCCCCCCCCCCNc1cc(C)nc(-c2cccnc2)n1 [compound 38] | <3.75 | 7.5 | >120 | <3.75 |
| CCCCCCCCCCCCCCNc1cc(C)nc(C(C)C)n1 [compound 81] | <3.75 | <3.75 | >120 | <3.75 |
| CCCCCCCCCCNc1cc(C)nc(C2CC2)n1 [compound 104] | <3.75 | 7.5 | >120 | 7.5 |
| CCCCN(C)c1cc(C)nc(-c2ccc(C(C)(C)C)cc2)n1 [compound 123] | 120 | >120 | >120 | >120 |
| Cc1cc(N2CCOCC2)nc(-c2cccnc2)n1 [compound 50] | 120 | >120 | >120 | >120 |
